Measurements reported in article PMC9516332 (Frontiers in Oncology, 2022).
Like-named read-outs stand apart in the source and are kept apart here.

Tested on: 134 cancer cell lines
Assay: Cell viability assay (ATPlite, 72 hours), IC50 on cancer cell line panel

Question: What does the source list for `CNC(=O)c1ccc(-c2cnc3ncc(Cc4ccc5ncccc5c4)n3n2)cc1F` [capmatinib]?
Answer: IC50 (Homo sapiens, LS-411N, read-out: IC50 in cell proliferation assay): > 31.6 µM; IC50 (Homo sapiens, LoVo, read-out: IC50 in cell proliferation assay): 0.00186 µM; IC50 (Homo sapiens, MCF7, read-out: IC50 in cell proliferation assay): > 31.6 µM; IC50 (Homo sapiens, MDA-MB-231, read-out: IC50 in cell proliferation assay): > 31.6 µM; IC50 (Homo sapiens, MDA-MB-453, read-out: IC50 in cell proliferation assay): > 31.6 µM; IC50 (Homo sapiens, MDA-MB-468, read-out: IC50 in cell proliferation assay): 30.8 µM; IC50 (Homo sapiens, MG-63, read-out: IC50 in cell proliferation assay): > 31.6 µM; IC50 (Homo sapiens, MIA PaCa-2, read-out: IC50 in cell proliferation assay): > 31.6 µM; IC50 (Homo sapiens, MKN-45, read-out: IC50 in cell proliferation assay): 0.004 µM; IC50 (Homo sapiens, MOLM-13, read-out: IC50 in cell proliferation assay): 6.01 µM; IC50 (Homo sapiens, MOLT-4, read-out: IC50 in cell proliferation assay): > 31.6 µM; IC50 (Homo sapiens, MV4-11, read-out: IC50 in cell proliferation assay): 1.95 µM; IC50 (Homo sapiens, MeWo, read-out: IC50 in cell proliferation assay): > 31.6 µM; IC50 (Homo sapiens, NCCIT, read-out: IC50 in cell proliferation assay): > 31.6 µM; IC50 (Homo sapiens, NCI-H82, read-out: IC50 in cell proliferation assay): > 31.6 µM; IC50 (Homo sapiens, NCI-H460, read-out: IC50 in cell proliferation assay): > 31.6 µM; IC50 (Homo sapiens, NCI-H661, read-out: IC50 in cell proliferation assay): > 31.6 µM; IC50 (Homo sapiens, NCI-H716, read-out: IC50 in cell proliferation assay): > 31.6 µM; IC50 (Homo sapiens, NCI-H1650, read-out: IC50 in cell proliferation assay): 9.45 µM; IC50 (Homo sapiens, NCI-H1975, read-out: IC50 in cell proliferation assay): > 31.6 µM; IC50 (Homo sapiens, NCI-H2228, read-out: IC50 in cell proliferation assay): > 31.6 µM; IC50 (Homo sapiens, OVCAR-3, read-out: IC50 in cell proliferation assay): > 31.6 µM; IC50 (Homo sapiens, PFSK-1, read-out: IC50 in cell proliferation assay): > 31.6 µM; IC50 (Homo sapiens, RL95-2, read-out: IC50 in cell proliferation assay): > 31.6 µM; IC50 (Homo sapiens, RPMI-7951, read-out: IC50 in cell proliferation assay): > 31.6 µM; IC50 (Homo sapiens, RS4-11, read-out: IC50 in cell proliferation assay): > 31.6 µM; IC50 (Homo sapiens, Rec1, read-out: IC50 in cell proliferation assay): 3.02 µM; IC50 (Homo sapiens, SHP77, read-out: IC50 in cell proliferation assay): > 31.6 µM; IC50 (Homo sapiens, SK-BR-3, read-out: IC50 in cell proliferation assay): > 31.6 µM; IC50 (Homo sapiens, SK-N-AS, read-out: IC50 in cell proliferation assay): > 31.6 µM; IC50 (Homo sapiens, SK-N-FI, read-out: IC50 in cell proliferation assay): > 31.6 µM; IC50 (Homo sapiens, SK-N-MC, read-out: IC50 in cell proliferation assay): > 31.6 µM; IC50 (Homo sapiens, SK-N-SH, read-out: IC50 in cell proliferation assay): 9.7 µM; IC50 (Homo sapiens, SNU-5, read-out: IC50 in cell proliferation assay): 0.000951 µM; IC50 (Homo sapiens, SNU-16, read-out: IC50 in cell proliferation assay): > 31.6 µM; IC50 (Homo sapiens, SNU-C2B, read-out: IC50 in cell proliferation assay): > 31.6 µM; IC50 (Homo sapiens, SU-DHL-1, read-out: IC50 in cell proliferation assay): > 31.6 µM; IC50 (Homo sapiens, SU-DHL-6, read-out: IC50 in cell proliferation assay): > 31.6 µM; IC50 (Homo sapiens, SUP-T1, read-out: IC50 in cell proliferation assay): > 31.6 µM; IC50 (Homo sapiens, SW48, read-out: IC50 in cell proliferation assay): > 31.6 µM; IC50 (Homo sapiens, SW480, read-out: IC50 in cell proliferation assay): > 31.6 µM; IC50 (Homo sapiens, SW626, read-out: IC50 in cell proliferation assay): > 31.6 µM; IC50 (Homo sapiens, SW780, read-out: IC50 in cell proliferation assay): > 31.6 µM; IC50 (Homo sapiens, SW837, read-out: IC50 in cell proliferation assay): 7.23 µM; IC50 (Homo sapiens, SW872, read-out: IC50 in cell proliferation assay): > 31.6 µM; IC50 (Homo sapiens, SW900, read-out: IC50 in cell proliferation assay): > 31.6 µM; IC50 (Homo sapiens, SW948, read-out: IC50 in cell proliferation assay): > 31.6 µM; IC50 (Homo sapiens, SW982, read-out: IC50 in cell proliferation assay): > 31.6 µM; IC50 (Homo sapiens, SW-620, read-out: IC50 in cell proliferation assay): > 31.6 µM; IC50 (Homo sapiens, T98G, read-out: IC50 in cell proliferation assay): > 31.6 µM; IC50 (Homo sapiens, TCC-SUP, read-out: IC50 in cell proliferation assay): > 31.6 µM; IC50 (Homo sapiens, THP-1, read-out: IC50 in cell proliferation assay): > 31.6 µM; IC50 (Homo sapiens, U2OS, read-out: IC50 in cell proliferation assay): > 31.6 µM; IC50 (Homo sapiens, U-87 MG, read-out: IC50 in cell proliferation assay): 0.023 µM; IC50 (Homo sapiens, U-118-MG, read-out: IC50 in cell proliferation assay): > 31.6 µM; IC50 (Homo sapiens, UMUC3, read-out: IC50 in cell proliferation assay): > 31.6 µM; IC50 (Hs766T, read-out: IC50 in cell proliferation assay): > 31.6 µM; IC50 (L-82, read-out: IC50 in cell proliferation assay): > 31.6 µM; IC50 (Rh30, read-out: IC50 in cell proliferation assay): 7.37 µM
